Experimental data as given in ChEMBL document CHEMBL1147808, “Protein tyrosine phosphatase 1B inhibitory activity of triterpenes isolated from Astilbe koreana” (Bioorg Med Chem Lett, 2006).

What follows are compounds tested against T1, Tyrosine-protein phosphatase non-receptor type 1 (Homo sapiens, UniProt P18031) (assay: Inhibition of human recombinant PTP1B).
T1 sequence (P18031 whole entry): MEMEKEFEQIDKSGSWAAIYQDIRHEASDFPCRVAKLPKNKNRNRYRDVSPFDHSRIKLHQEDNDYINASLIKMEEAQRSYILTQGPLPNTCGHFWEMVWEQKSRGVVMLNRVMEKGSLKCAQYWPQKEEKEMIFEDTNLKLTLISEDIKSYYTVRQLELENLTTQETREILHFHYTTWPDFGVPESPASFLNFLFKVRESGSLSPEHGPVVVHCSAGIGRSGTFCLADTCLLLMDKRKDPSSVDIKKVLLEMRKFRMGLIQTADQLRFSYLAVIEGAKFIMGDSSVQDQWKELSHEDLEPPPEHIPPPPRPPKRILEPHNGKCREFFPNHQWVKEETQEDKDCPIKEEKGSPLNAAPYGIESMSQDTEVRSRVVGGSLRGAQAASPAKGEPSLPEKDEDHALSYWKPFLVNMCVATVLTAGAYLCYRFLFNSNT

IC50 [µM] | SMILES
6.8 | CC1(C)CC[C@]2(C)CC[C@]3(C(=O)O)C(=CC[C@@H]4[C@@]5(C)CCC(=O)C(C)(C)[C@@H]5CC[C@]43C)[C@@H]2C1
12.8 | CC1(C)CC[C@]2(C)CC[C@]3(C(=O)O)C(=CC[C@@H]4[C@@]5(C)CC[C@H](O)C(C)(C)C5[C@H](O)C[C@]43C)[C@@H]2C1 (some centres undefined)
> 100 | CC1(C)[C@@H](O[C@H]2O[C@H](C(=O)O)[C@@H](O)[C@H](O)[C@H]2O[C@@H]2O[C@H](C(=O)O)[C@@H](O)[C@H](O)[C@H]2O)CC[C@]2(C)[C@H]3C(=O)C=C4[C@@H]5C[C@@](C)(C(=O)O)CC[C@]5(C)CC[C@@]4(C)[C@]3(C)CC[C@@H]12 [GLYCYRRHIZIN]

Second part, the compound before the results:

SMILES | IC50 [µM]
COC(=O)[C@@]12CC[C@@]3(C)CCC(C)(C)C[C@H]3C1=CC[C@@H]1[C@@]3(C)CC[C@H](O)C(C)(C)C3CC[C@]12C (some centres undefined) | 16
CC1(C)CC[C@]2(C)CC[C@]3(C(=O)O)C(=CC[C@@H]4[C@@]5(C)CC[C@@H](O)[C@](C)(CO)C5CC[C@]43C)[C@@H]2C1 (some centres undefined) | 11.7
CC(=O)O[C@H]1CC[C@@]2(C)C(CC[C@]3(C)[C@@H]2CC=C2[C@@H]4CC(C)(C)CC[C@]4(C)CC[C@]23C(=O)O)C1(C)C (some centres undefined) | 8.5
CC1(C)CC[C@]2(C)CC[C@]3(C(=O)O)C(=CC[C@@H]4[C@@]5(C)CC[C@H](O)C(C)(C)C5CC[C@]43C)[C@@H]2C1 (some centres undefined) | 5.2
C[C@H]1[C@H](C)CC[C@]2(C)CC[C@]3(C(=O)O)C(=CC[C@@H]4[C@@]5(C)CC[C@H](O)C(C)(C)C5CC[C@]43C)[C@H]12 (some centres undefined) | 4.9
COC(=O)[C@@]12CCC3C(=CC[C@H]4[C@@]3(C)CCC3C(C)(C)[C@@H](O)CC[C@@]34C)[C@@H]1CC(C)(C)CC2 (some centres undefined) | 14.2
